{
  "source": "ChEMBL document CHEMBL4619745",
  "about": "“Identification of 2-((2,3-dihydrobenzo[b][1,4]dioxin-6-yl)amino)-N-phenylpropanamides as a novel class of potent DprE1 inhibitors” (Bioorg Med Chem Lett, 2020)",
  "key": {"[1]": {"system": "Mycobacterium tuberculosis", "test": "Ratio of MIC for Mycobacterium tuberculosis H37Rv overexpressing DprE1 to MIC for Mycobacterium tuberculosis H37Rv", "format": "functional"}, "[2]": {"system": "Mycobacterium tuberculosis", "test": "Antimycobacterial activity against Mycobacterium tuberculosis H37Rv overexpressing DprE1", "format": "functional"}},
  "data": [
    {"smiles": "CC(Nc1ccc2c(c1)OCCO2)C(=O)Nc1ccc(Br)cc1", "note": "(racemic)", "values": [
      {"measurement": "Ratio", "setting": "[1]", "value": 8},
      {"measurement": "MIC", "setting": "[2]", "value": 62.5, "unit": "µM"}
    ]}
  ]
}
